Measured values as given in patent publication US9670217B2, “Process for preparing chlorins and their pharmaceutical uses” (UNIVERSIDADE DE COIMBRA, priority 2008, dated 2017).

Key:
[1] = system: A-549 (human non-small cell lung carcinoma); experiment: Cell photosensitization, 748 nm diode laser, resazurin; format: cell-based
[2] = Photobleaching under 748 nm diode laser irradiation; format: physicochemical; conditions: PBS:methanol; 100 mW laser irradiation at 748 nm
Text: The irradiation of bacteriochlorins in the photobleaching experiments employed the 748 nm Lynx diode laser. For animal studies we employed a costumer-made Hamamatsu diode laser, type LA0873. S/N M070301, which delivered 140 mW at 748 nm. This diode laser was controlled by a ThorLabs 500 mA ACC/APC Laser Diode Controller and in-house electronics. The laser energies of this and the other higher-energy lasers employed in this work were regularly checked with an Ophir model AN/2E laser power meter.
Photobleaching experiments were conducted in PBS. PBS:methanol (50:50) and methanol solutions. The solutions were irradiated in a cuvette with an optical path of 1 cm and the Lynx diode laser. The initial absorption of the solutions was ca. 0.8. The mechanism of photobleaching was assessed with the irradiation of the sensitizer using the Hamamatsu diode laser at 80 mW. The sensitizer was irradiated in PBS and in the presence of ascorbic acid or azide.
The chemical stability of the compounds was studied exposing them to light, air, and pH changes. The most significant degradation occurs for aerated solutions irradiated by light of the appropriate wavelength. In such circumstances the photobleaching of the compounds follows a first-order rate and is proportional to the energy of the incident laser light. In general, it was also observed that the photobleaching rate increases with the amount of water present in the solution. Bennett reported the photoconversion of Foscan® (m-THPC) and of the analogous bacteriochlorin (m-THPB) in PBS:methanol (50:50). Scherz reported the photoconversion of Tookad® in acetone and Triton-X:PBS [3]. For the purpose of comparing the photostability of Luzitins with that of Foscan® and Tookad®, we present in Table 2 the half-lives (t1/2) of representative drugs described herein, together with those of Foscan and Tookad® normalized for a laser power of 100 mW.
Luzitin-FMet was dissolved in PBS:methanol (2:3), transferred to a 1 cm quartz cell and its absorption spectrum was registered, FIG. 6. The quartz cell was then placed in the beam of the 748 nm Lynx diode laser, previously unfocused to have a beam diameter coincident with the window of the quartz cell. The laser power measured under these conditions was 28.8 mW. Every 5 minutes the irradiation was interrupted and a new absorption spectrum was registered. This procedure was followed for 65 minutes. The photobleaching follows the kinetics of a first-order reaction in the time window of the experiment. […] Whereas the bacteriochlorin peak at 743 nm is reduced from an absorbance of 1.128 to 0.337, the absorption of the chlorin only increases from 0.114 to 0.151. Taking into consideration the molar absorption coefficients of the compounds at these wavelengths, it is clear that whereas 70% of the bacteriochlorin is destroyed during the irradiation, only a few percent of chlorin are formed.
The half-lives of other bacteriochlorins normalized 100 mW laser irradiation at 748 nm are presented in […], together with the literature data for the photodegradation of Foscan® and Tookad® normalized for the same light intensity. It was also observed that the half-live to Luzitin-Cl is increased by a factor of 30 when the PBS solution of the photosensitizer is saturated with Argon, which reduces the oxygen concentration in the solution.

[3] = system: A-549 (human non-small cell lung cancer); experiment: Cytotoxicity in the dark, resazurin assay; format: cell-based; parameters: unit not given here; conditions: A-549, dark
Description: The cell lines employed in laser irradiation were the HT-29 (human colon carcinoma), PC-3 (human prostate carcinoma), SW2 (human small cell lung cancer), A-549 (human non-small cell lung cancer). S91/I3 (mouse melanoma) and CT26 (mouse colon carcinoma). They were used both for cytotoxicity and photocytotoxicity experiments. PC-3. SW2 and S91113 cells were cultured in RPMI-1640 medium (Sigma-Aldrich, Steinheim, Germany) and HT-29, A-549 and CT26 cells were cultured in Dulbecco's Modified Eagle Medium (DMEM) (Cambrex Bioscience, Verviers, Belgium). […] For the in vitro studies, cells at 85-90% confluence, were detached with Trypsin-Versene-EDTA solution (Cambrex Bioscience, Verviers, Belgium), counted and seeded in flat-bottom 96-well plates at the desired densities.
Cell viability assay. In the end of the experiences cell viability was evaluated by the resazurin reduction assay. […] The absorbance values of each well were measured at 540 nm and 630 nm using a microplate reader Multiskan Ex (Thermo-Electron Corporation, Vartaa, Finland).
Cytotoxicity. […] After the incubation the cell viability was evaluated. […] Cytotoxicity was quantified by expressing cell death relatively to untreated cells (% of control cells). […]

[4] = Absorption spectra (λmax, molar absorption coefficient); format: physicochemical; conditions: ethanol solutions
Description: Absorption spectra were recorded on a Shimadzu UV-2100 spectrophotometer or with a Carry 50 Biospectrophotometer (Varian, Mulgrave, USA). Fluorescence spectra were measured with a Spex Fluorolog 3 spectrophotometer, with correction for the wavelength dependence system (RCA C31034 photomultiplier), or with a PerkinElmer LS 50 spectrofluorimeter. Transient absorption spectra were measured with an Applied Photophysics LKS 60 nanosecond laser flash photolysis kinetic spectrometer, using the third harmonic of a Spectra-Physics Quanta Ray GCR 130-01 Nd/YAG laser for excitation, a Hamamatsu 1P28 photomultiplier and a Hewlett-Packard Infinium oscilloscope (1 GS/s). Flash photolysis measurements were made in the presence of air and in argon saturated solutions. Photoacoustic calorimetry employed the same Nd/YAG laser, a home-made front-face photoacoustic cell with a 2.25 MHz Panametrics transducer (model 5676) and a Tektronix DSA 601 transient recorder. Room-temperature singlet-oxygen phosphorescence was measured at 1270 nm with a Hamamatsu R5509-42 photomultiplier, cooled to 193 K in a liquid nitrogen chamber (Products for Research model PC176TSCE005), following laser excitation of aerated solutions at 355 nm, using an adapted Applied Photophysics spectrometer. Singlet oxygen emission at 1270 nm was also monitored with a liquid nitrogen-cooled germanium detector (North Coast) coupled to a Tectronix Digitizing scope (TDS 520B), following sample excitation with 5 ns laser pulses of the third harmonic (355 nm) generated by a Q-switched Nd:YAG laser (Continuum Surelite II).
This is indicative of little aggregation between the molecules, which exist mostly as monomers at these concentrations in the solvents studied. Table 1 presents typical red and infrared molar absorption coefficients (εmax) and wavelength maxima. The same table also presents representative fluorescence quantum yields (ΦF) of Luzitins. The fluorescence quantum yields decrease of these molecules decrease in the presence of chlorine substituents, a fingerprint of the heavy atom effect expected for such molecules.

[5] = system: CT26 (murine colon carcinoma); experiment: Cell photosensitization, 748 nm diode laser, resazurin; format: cell-based, mouse; conditions: 6 J/cm^2 diode laser irradiation at 28.5 mW
[6] = system: PC-3 (human prostate carcinoma); experiment: as above; format: cell-based; conditions: 6 J/cm^2 diode laser irradiation at 28.5 mW
[7] = n-octanol:water partition coefficient (shake-flask); format: physicochemical
Description: The n-octanol:water partition coefficients (CP) were measured using a minor modification of the shake-flask method described by some of us in the literature. The modification concerned the excitation of the absorption band ca 500 nm and the collection of the fluorescence in the red/IR region.

CNS(=O)(=O)c1ccc(F)c(-c2c3nc(c(-c4c(F)ccc(S(=O)(=O)NC)c4F)c4ccc([nH]4)c(-c4c(F)ccc(S(=O)(=O)NC)c4F)c4nc(c(-c5c(F)ccc(S(=O)(=O)NC)c5F)c5ccc2[nH]5)CC4)CC3)c1F [Luzitin-F2Met, 5,10,15,20-tetrakis(2,6-fluoro-3-N-methylsulfamoylphenyl)bacteriochlorin]
cell kill ([1]; 0.5 μM, laser light dose 6 J/cm^2, incubation 18 hours): 100%
concentration of sensitizer required to kill 90% of cells (LD90) ([1]; 6 J/cm^2 diode laser irradiation at 28.5 mW): 0.5 µM
t1/2 (photobleaching half-life) [2]: 6,480 sec
highest concentration that causes relatively no effect in viability in the dark [3]: 50
λmax [4]: 742.5 nm
εmax ([4]; corrected for the chlorin content): 78,000^d) M^−1 cm^−1
concentration of sensitizer required to kill 90% of cells (LD90) [5]: 1.0 µM
concentration of sensitizer required to kill 90% of cells (LD90) [6]: 0.5 µM
log KOW (n-octanol:water partition coefficient) [7]: 2.7
